≈ marks a conversion by molar mass, not a printed value. Like-named read-outs stand apart in the source and are kept apart here.
Assays:
[1] = system: Burkholderia cepacia complex; assay: Checkerboard FIC assay, BisEDT with CF agents (Example 10); format: cell-based, Burkholderia spp.; settings: B. cenocepacia isolate 0548; agent alone, as observed during FIC testing
P. aeruginosa [2] = settings: P. aeruginosa isolate 103, CLSI QC range in parenthesis, cited from earlier work
Pseudomonas aeruginosa [3] = settings: P. aeruginosa ATCC 27853, QC organism; cited from earlier work
P. aeruginosa [4] = assay: Broth microdilution MIC (Example 10)
[5] = system: Burkholderia cepacia complex; assay: Broth microdilution MIC (Example 10); settings: initial MIC testing
Escherichia coli = assay: Broth microdilution MIC (Example 12)
Klebsiella pneumoniae = assay: Broth microdilution MIC (Example 12)
Pseudomonas aeruginosa [6] = assay: Broth microdilution MIC (Example 12)
Acinetobacter baumannii = assay: Broth microdilution MIC (Example 12)

In the case of NCC[C@H](O)C(=O)N[C@@H]1C[C@H](N)[C@@H](O[C@H]2O[C@H](CN)[C@@H](O)[C@H](O)[C@H]2O)[C@H](O)[C@H]1O[C@H]1O[C@H](CO)[C@@H](O)[C@H](N)[C@H]1O [AMK], the MIC [1] is listed as […], the “MIC, CLSI QC range” value (P. aeruginosa [2]; Table 24) is listed as “(1-4) μg/mL” and the “MIC, CLSI QC range” value (P. aeruginosa [2]; Table 26) is listed as “(1-4) μg/mL”. The “MIC, QC range” value (Pseudomonas aeruginosa [3]) was “(1-4) μg/mL”, the MIC (P. aeruginosa [4]; P. aeruginosa isolate 103 (ATCC 25922), QC strain, initial MIC testing) was 2 µg/mL (≈ 3.42 µM) and the MIC (P. aeruginosa [4]; P. aeruginosa isolate 103 (ATCC 25922), during FIC testing, each agent tested alone for QC, one replicate) was 4 µg/mL. For the same molecule, the MIC (P. aeruginosa [4]; P. aeruginosa isolate 1497 (TOB-R, AMK-R, CIP-I, AZT-R, COL-R), initial MIC testing) was 64 µg/mL (≈ 109 µM), the MIC (P. aeruginosa [4]; P. aeruginosa isolate 1530 (TOB-R, AMK-R, CIP-R), initial MIC testing) was 64 µg/mL (≈ 109 µM) and the MIC (P. aeruginosa [4]; P. aeruginosa isolate 1553 (TOB-R, AMK-R, CIP-R), initial MIC testing) was 64 µg/mL (≈ 109 µM). The MIC (P. aeruginosa [4]; P. aeruginosa isolate 6322 (MEM-R, TOB-R, AMK-R, CIP-R, AZT-R), initial MIC testing) was 64 µg/mL (≈ 109 µM), the MIC (P. aeruginosa [4]; P. aeruginosa isolate 6977 (MEM-I, TOB-R, CIP-R, AZT-I), initial MIC testing) was 16 µg/mL (≈ 27.3 µM) and the MIC (P. aeruginosa [4]; P. aeruginosa isolate 7745 (MEM-R, CIP-R, AZT-R), initial MIC testing) was 4 µg/mL (≈ 6.83 µM). For the same molecule, the MIC (P. aeruginosa [4]; P. aeruginosa isolate 7754 (MEM-R, TOB-R, CIP-R, AZT-I), initial MIC testing) was 8 µg/mL (≈ 13.7 µM), the MIC (P. aeruginosa [4]; P. aeruginosa isolate 7762 (MEM-I, CIP-I), initial MIC testing) was 8 µg/mL (≈ 13.7 µM) and the MIC (P. aeruginosa [4]; P. aeruginosa isolate 7871 (MEM-R, AZT-I), initial MIC testing) was 2 µg/mL (≈ 3.42 µM). For the same molecule, the MIC (P. aeruginosa [4]; P. aeruginosa isolate 7874, initial MIC testing) was 2 µg/mL (≈ 3.42 µM), the MIC (P. aeruginosa [4]; P. aeruginosa isolate 7886 (MEM-R, CIP-R, AZT-R), initial MIC testing) was 8 µg/mL (≈ 13.7 µM) and the MIC (P. aeruginosa [4]; P. aeruginosa isolate 8797 (MEM-R, TOB-R, AMK-R, CIP-R, AZT-R, COL-R), initial MIC testing) was over 256 µg/mL. For the same molecule, the MIC (P. aeruginosa [4]; P. aeruginosa isolate 8798 (MEM-R, TOB-R, AMK-R, CIP-R, AZT-R, COL-R), initial MIC testing) was […], the MIC (P. aeruginosa [4]; P. aeruginosa isolate 9108 (CIP-R, AZT-I), initial MIC testing) was 4 µg/mL (≈ 6.83 µM) and the MIC ([5]; B. cenocepacia isolate 0548 (CIP-R)) was 256 µg/mL (≈ 437 µM). The MIC ([5]; B. cenocepacia isolate 1631) was 256 µg/mL (≈ 437 µM), the MIC ([5]; B. cenocepacia isolate 1783) was 256 µg/mL (≈ 437 µM) and the MIC ([5]; B. cenocepacia isolate 8555) was 256 µg/mL (≈ 437 µM). For the same molecule, the MIC ([5]; B. cepacia isolate 0546) was 64 µg/mL (≈ 109 µM), the MIC ([5]; B. cepacia isolate 1793) was 64 µg/mL (≈ 109 µM) and the MIC ([5]; B. cepacia isolate 9040) was 8 µg/mL (≈ 13.7 µM). The MIC ([5]; B. multivorans isolate 5665 (CIP-I)) was 256 µg/mL (≈ 437 µM), the MIC (Escherichia coli; E. coli ATCC 25922, QC organism) was 1 µg/mL (≈ 1.71 µM) and the MIC (Escherichia coli; E. coli ATCC 35218, QC organism) was 1 µg/mL (≈ 1.71 µM). It also gave an MIC (Escherichia coli; Escherichia coli ATCC 35218, ESBL) of 1 µg/mL (≈ 1.71 µM), an MIC (Escherichia coli; Escherichia coli ATCC BAA-2471, NDM) of 64 µg/mL (≈ 109 µM) and an MIC (Escherichia coli; Escherichia coli CDC 114, ESBL/KPC) of 1 µg/mL (≈ 1.71 µM). It also gave an MIC (Escherichia coli; Escherichia coli CDC 118, ESBL/NDM) of over 64 µg/mL, an MIC (Escherichia coli; Escherichia coli CDC 435, NDM) of over 64 µg/mL and an MIC (Escherichia coli; Escherichia coli CDC 451, KPC) of 4 µg/mL (≈ 6.83 µM). For the same molecule, the MIC (Escherichia coli; Escherichia coli CDC 503, ESBL/NDM) was over 64 µg/mL, the MIC (Escherichia coli; Escherichia coli MMX 5745, KPC) was 0.5 µg/mL (≈ 0.854 µM) and the MIC (Escherichia coli; Escherichia coli MMX 5755, ESBL) was 16 µg/mL (≈ 27.3 µM). The MIC (Escherichia coli; Escherichia coli MMX 5756, ESBL) was 64 µg/mL (≈ 109 µM), the MIC (Escherichia coli; Escherichia coli MMX 5758, ESBL) was 1 µg/mL (≈ 1.71 µM) and the MIC (Klebsiella pneumoniae; K. pneumoniae ATCC BAA-1705, QC organism) was 16 µg/mL (≈ 27.3 µM). The MIC (Klebsiella pneumoniae; Klebsiella pneumoniae ATCC BAA-1705, ESBL/KPC) was 16 µg/mL (≈ 27.3 µM), the MIC (Klebsiella pneumoniae; Klebsiella pneumoniae CDC 112, KPC) was 16 µg/mL (≈ 27.3 µM) and the MIC (Klebsiella pneumoniae; Klebsiella pneumoniae CDC 113, ESBL/KPC) was 16 µg/mL (≈ 27.3 µM). It also gave an MIC (Klebsiella pneumoniae; Klebsiella pneumoniae CDC 115, ESBL/KPC) of 0.5 µg/mL (≈ 0.854 µM), an MIC (Klebsiella pneumoniae; Klebsiella pneumoniae CDC 120, ESBL/KPC) of 16 µg/mL (≈ 27.3 µM) and an MIC (Klebsiella pneumoniae; Klebsiella pneumoniae CDC 126, ESBL/KPC) of 2 µg/mL (≈ 3.42 µM). The MIC (Klebsiella pneumoniae; Klebsiella pneumoniae CDC 129, ESBL/KPC) was […], the MIC (Klebsiella pneumoniae; Klebsiella pneumoniae CDC 135, ESBL/VIM) was 16 µg/mL (≈ 27.3 µM) and the MIC (Klebsiella pneumoniae; Klebsiella pneumoniae CDC 138, ESBL/NDM) was over 64 µg/mL. For the same molecule, the MIC (Klebsiella pneumoniae; Klebsiella pneumoniae CDC 158, ESBL/NDM/OXA) was 2 µg/mL (≈ 3.42 µM), the MIC (Klebsiella pneumoniae; Klebsiella pneumoniae MMX 9029, ESBL) was 0.5 µg/mL (≈ 0.854 µM) and the MIC (Pseudomonas aeruginosa [6]; P. aeruginosa ATCC 27853, QC organism) was 2 µg/mL (≈ 3.42 µM). The MIC (Pseudomonas aeruginosa [6]; Pseudomonas aeruginosa CDC 230, VIM/OXA) was over 64 µg/mL, the MIC (Pseudomonas aeruginosa [6]; Pseudomonas aeruginosa CDC 231, KPC/OXA) was 8 µg/mL (≈ 13.7 µM) and the MIC (Pseudomonas aeruginosa [6]; Pseudomonas aeruginosa CDC 241, IMP/OXA) was […]. The MIC (Pseudomonas aeruginosa [6]; Pseudomonas aeruginosa CDC 246, NDM/OXA) was over 64 µg/mL, the MIC (Pseudomonas aeruginosa [6]; Pseudomonas aeruginosa CDC 250, NDM/OXA) was over 64 µg/mL and the MIC (Pseudomonas aeruginosa [6]; Pseudomonas aeruginosa CDC 356, KPC) was 2 µg/mL (≈ 3.42 µM). For the same molecule, the MIC (Pseudomonas aeruginosa [6]; Pseudomonas aeruginosa CDC 439, IMP) was over 64 µg/mL, the MIC (Pseudomonas aeruginosa [6]; Pseudomonas aeruginosa CDC 444, VIM) was over 64 µg/mL and the MIC (Pseudomonas aeruginosa [6]; Pseudomonas aeruginosa CDC 457, VIM) was 2 µg/mL (≈ 3.42 µM). The MIC (Pseudomonas aeruginosa [6]; Pseudomonas aeruginosa CDC 516, KPC/AmpC) was 2 µg/mL (≈ 3.42 µM), the MIC (Pseudomonas aeruginosa [6]; Pseudomonas aeruginosa CDC 518, KPC/AmpC) was 16 µg/mL (≈ 27.3 µM) and the MIC (Acinetobacter baumannii; Acinetobacter baumannii CDC 273, ESBL/OXA) was over 64 µg/mL. It also gave an MIC (Acinetobacter baumannii; Acinetobacter baumannii CDC 274, ESBL/OXA) of 16 µg/mL (≈ 27.3 µM), an MIC (Acinetobacter baumannii; Acinetobacter baumannii CDC 275, ESBL/OXA) of over 64 µg/mL and an MIC (Acinetobacter baumannii; Acinetobacter baumannii CDC 277, ESBL/OXA) of 16 µg/mL (≈ 27.3 µM). For the same molecule, the MIC (Acinetobacter baumannii; Acinetobacter baumannii CDC 284, ESBL/OXA) was […], the MIC (Acinetobacter baumannii; Acinetobacter baumannii CDC 307, OXA) was over 64 µg/mL and the MIC (Acinetobacter baumannii; Acinetobacter baumannii CDC 308, ESBL/OXA) was over 64 µg/mL. For the same molecule, the MIC (Acinetobacter baumannii; Acinetobacter baumannii CDC 311, OXA) was over 64 µg/mL, the MIC (Acinetobacter baumannii; Acinetobacter baumannii CDC 312, OXA) was 1 µg/mL (≈ 1.71 µM) and the MIC (Acinetobacter baumannii; Acinetobacter baumannii CDC 313, ESBL/OXA) was 4 µg/mL (≈ 6.83 µM). For the same molecule, the MIC (Acinetobacter baumannii; Acinetobacter baumannii NCTC 13304, OXA) was 0.5 µg/mL (≈ 0.854 µM).

— US12186283B2, “Bismuth-thiol compositions and methods of use” (Microbion Corporation, priority 2018, dated 2025)
